Experimental data from patent US8476197B2, “Aminopropenoates as fungicides” (priority 2009, dated 2013).
Marks after values point to notes of the source that are not given here.

Settings: pH 2.3

| SMILES | Log P |
| --- | --- |
| CCOC(=O)C(C#N)=C(Nc1cccc(F)c1C)c1cccnc1Cl [Compound 1610] | 3.26 |
| CCOC(=O)C(C#N)=C(NC(C)C(C)C)c1ccc(Cl)nc1 (centres unmarked) [Compound 1617] | 3.39 |
| CCOC(=O)C(C#N)=C(NC(C)C(C)C)c1cccnc1C (centres unmarked) [Compound 953] | 2.63 |

Same assay, conditions: pH 2.7

| SMILES | Log P |
| --- | --- |
| CCOC(=O)C(C#N)=C(NC(C)c1ccccn1)c1cn(C)nc1C(C)(F)F (centres unmarked) [Compound 315] | 2.57^[a] |
| CC(C)C(C)NC(=C(C#N)C(=O)NC1CC1)c1cn(C)nc1C(F)F (centres unmarked) [Compound 1006] | 2.66^[a] |
| CCOC(=O)C(C#N)=C(NC(C)C(C)C)c1cn(C)nc1OC (centres unmarked) [Compound 969] | 3.06^[a] |
| CCOC(=O)C(C#N)=C(NC(C)C(=O)NC)c1sccc1Br (centres unmarked) [Compound 612] | 2.07^[a] |
| CCOC(=O)C(C#N)=C(NC(C)c1nccn1C)c1cccnc1Cl (centres unmarked) [Compound 1637] | 0.93^[a] |
| CCOC(=O)C(C#N)=C(NC(C)(C)CSC)c1cn(C)nc1C(F)F [Compound 703] | 2.84^[a] |
| CCOC(=O)C(C#N)=C(NC(C)c1ccccn1)c1c(C(F)F)nn(C)c1F (centres unmarked) [Compound 316] | 2.73^[a] |
| CCN(OC)C(=O)C(C#N)=C(NC(C)C(C)C)c1cccnc1Cl (centres unmarked) [Compound 1514] | 3.15^[a] |
| CCOC(=O)C(C#N)=C(NCc1ccc(F)cn1)c1ccsc1Br [Compound 251] | 3.04^[a] |
| COC(=O)C(C#N)=C(NC(C)c1ccccn1)c1cccnc1Cl (centres unmarked) [Compound 110] | 1.99^[a] |
| CCOC(=O)C(C#N)=C(NC(C)C1CC1)c1cccnc1Cl (centres unmarked) [Compound 910] | 3.1^[a] |
| CCOC(=O)C(C#N)=C(NC1(c2ccccc2)CCC1)c1cccnc1Cl [Compound 1550] | 3.73^[a] |
| CCOC(=O)C(C#N)=C(NC(C)C1CC1)c1scnc1Cl (centres unmarked) [Compound 1466] | 2.02^[a] |
| COC(=O)C(C#N)=C(NCc1nccs1)c1ncc(C(F)(F)F)cc1Cl [Compound 83] | 2.63^[a] |
| CCOC(=O)C(C#N)=C(NC(C)C(C)=NOC)c1cccnc1Cl (centres unmarked) [Compound 1633] | 2.8^[a] |
| CCOC(=O)C(C#N)=C(NC(C)c1ncc(C)s1)c1sccc1Br (racemic) [Compound 169] | 3.46^[a] |
| CCOC(=O)C(C#N)=C(NC(C)C(N)=O)c1conc1C (centres unmarked) [Compound 596] | 1.41^[a] |
| CCNC(=O)C(C#N)=C(NC(C)C(C)C)c1cccnc1Cl (centres unmarked) [Compound 958] | 2.94 |
| COC(=O)C(C#N)=C(NC(C)c1cccc(C(F)(F)F)c1)c1cccnc1Cl (centres unmarked) [Compound 401] | 3.28^[a] |
| CCOC(=O)C(C#N)=C(NC(C)c1nccs1)c1cn(C)nc1C(C)C (centres unmarked) [Compound 1214] | 2.62^[a] |
| CCOC(=O)C(C#N)=C(NC(C)C(=O)Nc1ccc2ccccc2c1)c1ccsc1Br (centres unmarked) [Compound 717] | 3.94^[a] |
| COC(=O)C(C#N)=C(NC(C)c1ccc(C(F)(F)F)cc1)c1cccnc1Cl (centres unmarked) [Compound 395] | 3.37^[a] |
| CCOC(=O)C(C#N)=C(NC(C)C(=O)NC)c1ccsc1I (centres unmarked) [Compound 646] | 2.07^[a] |

| SMILES | Log P |
| --- | --- |
| COC(=O)C(C#N)=C(NC(C)c1ccc(C(C)C)cc1)c1cccnc1Cl (centres unmarked) [Compound 379] | 4^[a] |
| CCOC(=O)C(C#N)=C(NCc1ccccn1)c1conc1C [Compound 81] | 1.96^[a] |
| CCOC(=O)C(C#N)=C(NC(C)c1nc(C)c(C)s1)c1sc(C)nc1C(F)(F)F (racemic) [Compound 143] | 3.83^[a] |
| CC(C)C(C)NC(=C(C#N)C(=O)Nc1ccccn1)c1cccnc1Cl (centres unmarked) [Compound 1516] | 3.21^[a] |
| CCOC(=O)C(C#N)=C(NC(C)c1c(C)sc2c1CCCC2)c1cccnc1Cl (racemic) [Compound 280] | 4.4^[a] |
| CCOC(=O)C(C#N)=C(NC(C)CCCC(C)C)c1cccnc1Cl (centres unmarked) [Compound 1187] | 4.62^[a] |
| CCOC(=O)C(C#N)=C(NC(C)CN)c1sccc1Br (centres unmarked) [Compound 707] | 1.1^[a] |
| CCOC(=O)C(C#N)=C(Nc1ccccc1C(=O)C1CC1)c1cn(C)nc1C(F)F [Compound 1226] | 3^[a] |
| CCOC(=O)C(C#N)=C(NC(C)c1ncc(C)s1)c1sc(C)nc1C(F)(F)F (centres unmarked) [Compound 196] | 3.46^[a] |
| C=CCCCC(C=C)NC(=C(C#N)C(=O)OCC)c1sccc1C(F)(F)F (racemic) [Compound 1014] | 4.7^[a] |
| CCOC(=O)C(C#N)=C(NC(c1cc2ccccc2s1)C(F)(F)F)c1sccc1C(F)(F)F (centres unmarked) [Compound 107] | 4.89^[a] |
| CCOC(=O)C(C#N)=C(NCc1nc2ccccc2s1)c1sc(C)nc1C(F)(F)F [Compound 197] | 3.48^[a] |
| CCOC(=O)C(C#N)=C(NCC(N)=O)c1cn(C)nc1C(F)F [Compound 1255] | 2.1^[a] |
| CCOC(=O)C(C#N)=C(NC(C)c1sc(C)nc1C)c1ccsc1Br (racemic) [Compound 261] | 2.9^[a] |
| CCC(NC(=C(C#N)C(=O)OC)c1cccnc1Cl)c1cccc(Cl)c1 (centres unmarked) [Compound 372] | 3.58^[a] |
| CCNC(=O)C(C#N)=C(NC(C)c1nccs1)c1cnn(C)c1C(F)F (centres unmarked) [Compound 1308] | 2.11^[a] |
| COC(=O)C(C#N)=C(NC(C)c1nc(C)cs1)c1sc(C)nc1C(F)(F)F (racemic) [Compound 180] | 3.04^[a] |
| CCCCCCC(C)NC(=C(C#N)C(=O)OCC)c1ccsc1Br (racemic) [Compound 820] | 5.41^[a] |
| CCOC(=O)C(C#N)=C(NC(C)c1nccs1)c1ccnc(Cl)c1Cl (mixture of isomers) [Compound 291] | 2.96^[a] |
| COCC#CC(C)(C)NC(=C(C#N)C(=O)OC)c1sc(C)nc1C(F)(F)F [Compound 1100] | 3.06^[a] |
| CCOC(=O)C(C#N)=C(NC(C)c1cc(C(F)(F)F)c(Cl)cn1)c1cccnc1Cl (centres unmarked) [Compound 1638] | 3.9^[a] |
| CCOC(=O)C(C#N)=C(NC(C)c1nccs1)c1cn(C)nc1C(F)F (racemic) [Compound 34] | 2.4^[a] |
| CCNC(=O)C(C#N)=C(NC(C)c1ccccn1)c1cn(C)nc1C(F)F (racemic) [Compound 1293] | 1.86^[a] |

| SMILES | Log P |
| --- | --- |
| CCOC(=O)C(C#N)=C(NC(C)c1nccs1)c1nc(SC)ncc1Br (racemic) [Compound 240] | 3.21^[a] |
| CCOC(=O)C(C#N)=C(NC(C)c1cscn1)c1ccncc1Br (mixture of isomers) [Compound 298] | 2.4^[a] |
| CCOC(=O)C(C#N)=C(NC(C)c1ccc(F)cc1)c1sc(C)nc1C(F)(F)F (mixture of isomers) [Compound 450] | 3.96^[a] |
| CCOC(=O)C(C#N)=C(NC(C)C1(Cl)CC1)c1ccsc1Br (centres unmarked) [Compound 774] | 3.92^[a] |
| COC(=O)C(C#N)=C(NC(C)c1ccccc1OC)c1cccnc1Cl (centres unmarked) [Compound 392] | 2.84^[a] |
| COC(=O)C(C#N)=C(NC(C)c1cccc(C)c1)c1cccnc1Cl (centres unmarked) [Compound 396] | 3.02^[a] |
| CCOC(=O)C(C#N)=C(NC(C)c1ccccn1)c1ccncc1Cl (racemic) [Compound 260] | 2.54^[a] |
| CCOC(=O)C(C#N)=C(Nc1ccccc1OC(C)C)c1sccc1Br [Compound 467] | 4.46^[a] |
| COC(=O)C(C#N)=C(NC(C)c1ccccc1C)c1cccnc1Cl (centres unmarked) [Compound 373] | 3.15^[a] |
| CCOC(=O)C(C#N)=C(Nc1ccccc1SC)c1cn(C)cc1C(F)(F)F [Compound 548] | 3.73^[a] |
| CCOC(=O)C(C#N)=C(Nc1ccc(N(C)C)cc1)c1ccsc1Br [Compound 540] | 3.76^[a] |
| CCOC(=O)C(C#N)=C(NC(C)CC)c1cc(C)oc1C (centres unmarked) [Compound 825] | 3.63^[a] |
| CCCCCC(C)NC(=C(C#N)C(=O)OCC)c1sc(C)nc1C(F)(F)F (centres unmarked) [Compound 856] | 4.81^[a] |
| CCOC(=O)C(C#N)=C(NC(C)C1CC1)c1ccncc1Br (racemic) [Compound 903] | 3^[a] |
| CCOC(=O)C(C#N)=C(Nc1ccccc1Cl)c1cn(C)nc1C(F)F [Compound 1216] | 3.15^[a] |
| CCOC(=O)C(C#N)=C(NCc1nccs1)c1ncc(Cl)cc1Cl [Compound 228] | 2.7^[a] |
| CCNC(=O)C(C#N)=C(NC(C)C(C)C)c1cn(C)nc1C(F)F (centres unmarked) [Compound 1278] | 2.71^[a] |
| CCOC(=O)C(C#N)=C(NC(C)C(=O)OCc1ccccc1)c1cccnc1Cl (centres unmarked) [Compound 1539] | 3.53^[a] |
| CCOC(=O)C(C#N)=C(NC(C)c1ncc(C)s1)c1cccnc1Cl (centres unmarked) [Compound 1520] | 2.92^[a] |
| CCOC(=O)C(C#N)=C(NC(C)CC(=O)Nc1ccccc1C)c1cn(C)nc1C(F)F (centres unmarked) [Compound 1138] | 2.68^[a] |
| CCOC(=O)C(C#N)=C(NC(C)c1ccccn1)c1ccnc(CC)c1Cl (racemic) [Compound 1396] | 2.96^[a] |
| CCOC(=O)C(C#N)=C(NC(CC)CC#N)c1cn(C)nc1C(F)F (centres unmarked) [Compound 1342] | 2.39^[a] |
| CCOC(=O)C(C#N)=C(NC1CCCCC1C)c1cn(C)nc1C(F)F (centres unmarked) [Compound 1122] | 3.6^[a] |

Same assay, conditions: pH 7.5

| SMILES | Log P |
| --- | --- |
| CCOC(=O)C(C#N)=C(Nc1cccc(F)c1C)c1cccnc1Cl [Compound 1610] | 3.24 |
| CCOC(=O)C(C#N)=C(NC(C)C(C)C)c1ccc(Cl)nc1 (centres unmarked) [Compound 1617] | 3.41 |
| COC(=O)C(C#N)=C(NC(C(=O)OC)C(C)C)c1cccnc1Cl (centres unmarked) [Compound 580] | 2.56 |
| CCOC(=O)C(C#N)=C(NC(C)C(C)C)c1cccnc1C (centres unmarked) [Compound 953] | 2.89 |
| COC(=O)C(C#N)=C(NCC1CCCO1)c1cccnc1Cl (centres unmarked) [Compound 16] | 2.03 |
